Experimental findings from ChEMBL document CHEMBL1126087, “(E)-1,3-dialkyl-7-methyl-8-(3,4,5-trimethoxystyryl)xanthines: potent and selective adenosine A2 antagonists” (J Med Chem, 1992) are described below.

The target in data set [1] is T1, Adenosine receptor A1 (Rattus norvegicus, UniProt P25099).
T1 sequence (P25099 whole entry): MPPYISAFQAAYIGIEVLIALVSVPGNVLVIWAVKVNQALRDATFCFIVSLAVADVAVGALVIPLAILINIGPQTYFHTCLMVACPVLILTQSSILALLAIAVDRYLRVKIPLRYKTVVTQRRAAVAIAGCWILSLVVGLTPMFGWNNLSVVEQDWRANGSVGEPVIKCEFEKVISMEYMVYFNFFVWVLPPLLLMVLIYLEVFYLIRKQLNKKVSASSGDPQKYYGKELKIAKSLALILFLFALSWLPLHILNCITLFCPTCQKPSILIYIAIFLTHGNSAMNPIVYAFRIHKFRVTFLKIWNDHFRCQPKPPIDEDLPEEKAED

For the next data set, the target named is Adenosine A2 receptor (Rattus norvegicus, UniProt P29276+P30543).
Data set [2] has as its target T2, Adenosine receptor A1 (Cavia porcellus, UniProt P47745).
T2 sequence (P47745 whole entry): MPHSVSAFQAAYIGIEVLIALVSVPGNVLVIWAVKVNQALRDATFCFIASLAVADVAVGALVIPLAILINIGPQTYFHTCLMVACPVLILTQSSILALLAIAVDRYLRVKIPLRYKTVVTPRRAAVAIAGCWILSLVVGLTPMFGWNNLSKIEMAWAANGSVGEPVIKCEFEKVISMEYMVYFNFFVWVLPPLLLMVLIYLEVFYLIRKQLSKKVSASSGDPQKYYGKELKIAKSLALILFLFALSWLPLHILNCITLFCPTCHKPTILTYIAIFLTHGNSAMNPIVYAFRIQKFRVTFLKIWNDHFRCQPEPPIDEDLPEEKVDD
Description: Binding affinity against adenosine A1 receptor from guinea pig forebrain membranes, using N6-[3H]cyclohexyladenosine as radioligand.

The nature of data set [3]: Water solubility of the compound. The data set is classed as ADME. The conditions noted are these: read-out: S.
Data set [4] concerns the target Adenosine receptor A2a (Homo sapiens) (UniProt P29274).
The target in data set [5] is T1, Adenosine receptor A1. Format: cell membranes, Membrane.

Each structure is given as a SMILES string.

Sequence of Adenosine receptor A2a (Homo sapiens) (P29274 whole entry, looked up): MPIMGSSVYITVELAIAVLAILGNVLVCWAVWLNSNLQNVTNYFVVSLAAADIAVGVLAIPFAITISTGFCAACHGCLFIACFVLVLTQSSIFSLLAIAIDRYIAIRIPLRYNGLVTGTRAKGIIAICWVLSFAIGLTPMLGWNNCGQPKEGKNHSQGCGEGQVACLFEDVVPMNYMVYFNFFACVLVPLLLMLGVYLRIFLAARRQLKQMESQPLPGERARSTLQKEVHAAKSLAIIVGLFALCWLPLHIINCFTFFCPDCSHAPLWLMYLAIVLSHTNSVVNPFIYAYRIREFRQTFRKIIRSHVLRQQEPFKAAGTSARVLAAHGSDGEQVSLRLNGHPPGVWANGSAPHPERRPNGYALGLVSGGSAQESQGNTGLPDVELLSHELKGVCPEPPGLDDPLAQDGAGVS

One may read the Ki as a dissociation constant, usually derived from enzyme kinetics or from competition with a known ligand. Low values mean tighter binding, high ones weaker binding. For `CCCn1c(=O)c2c(nc(/C=C/c3ccc(OC)cc3)n2C)n(CCC)c1=O`, the Ki stood at 0.34 µM on Adenosine receptor A1 [1], 0.018 µM on Adenosine A2 receptor and 1.4 µM on Adenosine receptor A1 [2]. The Ki ratio in the data set listed under Cavia porcellus was 78.

Turning to `CCCn1c(=O)[nH]c(=O)c2[nH]c(/C=C/c3cc(OC)c(OC)c(OC)c3)nc21`, the figures for the Ki at Adenosine A2 receptor and on Adenosine receptor A1 [2] were 2.2 µM and 0.82 µM, respectively. Moreover, in the data set listed under Cavia porcellus, the Ki ratio turned out to be 0.37.

For `C=CCn1c(=O)c2nc(/C=C/c3cc(OC)c(OC)c(OC)c3)[nH]c2n(CC=C)c1=O`, the Ki was 0.047 µM at Adenosine A2 receptor and greater than 100 µM at Adenosine receptor A1 [2]. For the same compound, the Ki ratio in the data set listed under Cavia porcellus is greater than 2100.

On to `CCCn1c(=O)c2c(nc(/C=C/c3cc(OC)c(OC)c(OC)c3)n2C)n(CCC)c1=O`, for which the values for the inhibitory constant (Ki) at Adenosine receptor A1 [1], at Adenosine A2 receptor and on Adenosine receptor A1 [2] were 1.1 µM, 0.014 µM and 2.1 µM, respectively. Besides, the Ki ratio in the data set filed under Cavia porcellus was 150.

As for `CCCn1c(=O)c2nc(/C=C/c3ccc(Cl)cc3)[nH]c2n(CCC)c1=O`, the Ki at Adenosine A2 receptor and on Adenosine receptor A1 [2] was greater than 100 µM throughout.

With `CCCn1c(=O)c2c(nc(/C=C/c3ccccc3)n2C)n(CCC)c1=O`, the figures for the inhibitory constant (Ki) at Adenosine receptor A1 [1], on Adenosine A2 receptor and on Adenosine receptor A1 [2] were 0.22 µM, 0.015 µM and 0.72 µM, respectively. Besides, the Ki ratio in the data set listed under Cavia porcellus came out at 48.

Turning to `CCCn1c(=O)c2nc(/C=C/c3ccc(OC)cc3)[nH]c2n(CCC)c1=O`, the figures for the Ki on Adenosine A2 receptor and at Adenosine receptor A1 [2] were 0.11 µM and greater than 100 µM, respectively.

Turning to `CCCn1c(=O)c2nc(/C=C/c3ccc(Cl)c(Cl)c3)[nH]c2n(CCC)c1=O`, the inhibition constant Ki on Adenosine A2 receptor and on Adenosine receptor A1 [2] was greater than 100 µM each time.

In the case of `CCCn1c(=O)c2nc(-c3ccc(S(=O)(=O)N(C)CCN(C)C)cc3)[nH]c2n(CCC)c1=O`, in the data set listed under Cavia porcellus, the Ki ratio came out at 5.4.

At Adenosine receptor A1 [1], `CCCn1c(=O)c2c(nc(/C=C/c3ccc(OC)c(OC)c3)n2C)n(CCC)c1=O` returned a Ki of 0.43 µM. Further, in data set [3], the solubility was less than 10 µg/mL.

On to `CCCn1c(=O)c2c(nc(/C=C/c3ccc(Cl)c(Cl)c3)n2C)n(CCC)c1=O`, for which the Ki was 7.5 µM at Adenosine A2 receptor and greater than 100 µM on Adenosine receptor A1 [2].

Turning to `CCCn1c(=O)c2c(nc(CCc3ccccc3)n2C)n(CCC)c1=O`, the Ki amounted to 2.2 µM at Adenosine A2 receptor and 1.3 µM at Adenosine receptor A1 [2]. Also, in the data set filed under Cavia porcellus, the Ki ratio came out at 0.59.

Consider `CCCn1c(=O)c2c(nc(C/C=C/c3ccccc3)n2C)n(CCC)c1=O`, for which the Ki at Adenosine A2 receptor was found to be 1.8 µM; on Adenosine receptor A1 [2], 3.5 µM. Besides, the Ki ratio in the data set listed under Cavia porcellus was determined as 1.9.

For the compound `CCCn1c(=O)c2nc(/C=C/c3ccccc3)[nH]c2n(CCC)c1=O`, the Ki was 0.026 µM on Adenosine A2 receptor and 1.8 µM on Adenosine receptor A1 [2].

Regarding `CCCn1c(=O)c2nc(CCc3ccccc3)[nH]c2n(CCC)c1=O`, the Ki is 6.2 µM at Adenosine A2 receptor and 0.56 µM at Adenosine receptor A1 [2]. In addition, the Ki ratio in the data set listed under Cavia porcellus was 0.09.

`CCCn1c(=O)c2[nH]c(CCC3CCCC3)nc2n(CCC)c1=O` came in with a Ki at Adenosine receptor A1 [2] of 0.32 µM.

`CCCCn1c(=O)c2c(nc(/C=C/c3cc(OC)c(OC)c(OC)c3)n2C)n(CCCC)c1=O`: the values for the Ki at Adenosine A2 receptor and on Adenosine receptor A1 [2] were 0.052 µM and 2.3 µM, respectively. Besides, the Ki ratio in the data set listed under Cavia porcellus came to 44.

Take `CCCn1c(=O)c2nc(C/C=C/c3ccccc3)[nH]c2n(CCC)c1=O`: the results for the Ki on Adenosine A2 receptor and at Adenosine receptor A1 [2] were 1.6 µM and 0.87 µM, respectively. Moreover, the Ki ratio in the data set listed under Cavia porcellus came to 0.54.

Regarding `CCCn1c(=O)c2c(nc(/C=C/c3ccc(Cl)cc3)n2C)n(CCC)c1=O`, the Ki at Adenosine A2 receptor was 0.049 µM; at Adenosine receptor A1 [2], greater than 10 µM.

On to `CCCn1c(=O)c2nc(/C(C)=C/c3ccccc3)[nH]c2n(CCC)c1=O`, for which the Ki is greater than 10 µM at Adenosine A2 receptor and greater than 100 µM on Adenosine receptor A1 [2].

The compound `C=CCn1c(=O)c2c(nc(/C=C/c3cc(OC)c(OC)c(OC)c3)n2C)n(CC=C)c1=O` came in with a Ki on Adenosine receptor A1 [2] greater than 100 µM.

On to `CCCn1c(=O)c2nc(CCC3CCCC3)[nH]c2n(CCC)c1=O`, for which the Ki on Adenosine A2 receptor was 6 µM. The Ki ratio in the data set listed under Cavia porcellus turned out to be 0.053.

With `CCCCn1c(=O)c2nc(/C=C/c3cc(OC)c(OC)c(OC)c3)[nH]c2n(CCCC)c1=O`, the Ki is 0.093 µM on Adenosine A2 receptor and 1.4 µM on Adenosine receptor A1 [2]. The Ki ratio in the data set filed under Cavia porcellus was 15.

The compound `CCCn1c(=O)c2nc(/C=C/c3ccc(OC)c(OC)c3)[nH]c2n(CCC)c1=O` showed a Ki at Adenosine receptor A1 [2] of 1.7 µM.

Turning to `CCCn1c(=O)c2c(nc(C3CCCC3)n2C)n(CCC)c1=O`, the results for the Ki on Adenosine A2 receptor and at Adenosine receptor A1 [2] were greater than 100 µM and 8.1 µM, respectively. In addition, in the data set filed under Cavia porcellus, the Ki ratio was found to be 0.26. Also, in data set [4], the Kb amounted to 0.22 µM.

Consider `COc1cc(/C=C/c2nc3c(c(=O)n(C)c(=O)n3C)n2C)cc(OC)c1OC`, for which the Ki at Adenosine receptor A1 [2] was greater than 100 µM.

In the case of `CCCn1c(=O)c2c(nc(/C(C)=C/c3ccccc3)n2C)n(CCC)c1=O`, the Ki on Adenosine A2 receptor and on Adenosine receptor A1 [2] was greater than 10 µM each time.

Consider `CCCn1c(=O)c2c(nc(CCC3CCCC3)n2C)n(CCC)c1=O`, for which the Ki is greater than 10 µM on Adenosine A2 receptor and 1.3 µM at Adenosine receptor A1 [2].

Consider `CCCn1c(=O)c2[nH]c(-c3ccc(S(=O)(=O)N(C)CCN(C)C)cc3)nc2n(CCC)c1=O`, for which the values for the Ki on Adenosine receptor A1 [5] and at Adenosine receptor A1 [2] were 0.0139 µM and 0.14 µM, respectively.

The compound `COc1cc(/C=C/c2nc3c(=O)n(C)c(=O)n(C)c3[nH]2)cc(OC)c1OC` yielded a Ki at Adenosine receptor A1 [2] greater than 100 µM.
